“Also recorded” adds a separate entry of the source. Like-named read-outs stand apart in the source and are kept apart here.
How the values were obtained:
[1] = Pharmacokinetics and metabolism in rat plasma after a single intravenous or oral dose (HPLC); type: in vivo
Procedure: Female Wistar (155–165 g) rats were purchased from Charles River UK Ltd (Margate, Kent, UK) and housed in a dedicated animal facility. Rats received RM1 rodent maintenance diet (SDS, Kent, UK), water ad libitum, and were maintained in positive pressure isolators under a 12 h light–dark cycle. These experiments were carried out under conditions that complied with institutional requirements. Rats received 2-MeOE2 or 2-MeOE2bisMATE (10 mg kg^−1, oral or intravenous), with control animals receiving vehicle only (propylene glycol: THF, 9 : 1 v v^−1). There were two reasons for selecting 10 mg kg^−1 for both oral and intravenous dosing. […] Rats were subjected to terminal anaesthesia (Halothane) and blood removed by cardiac puncture at 5, 15 and 30 min and 1, 3, 8 and 24 h after intravenous administration, and 15 and 30 min and 1, 3, 8, 24 and 48h following oral administration of 2-MeOE2 or 2-MeOE2bisMATE. Plasma was prepared from whole blood by centrifugation (2800 g, 4°C, 15 min). Plasma (0.5 ml) was extracted with diethyl ether (4 ml) and frozen in a methanol : solid carbon dioxide mixture. 17α-Epitestosterone (28 μg ml^−1) was used as an internal standard after purification by HPLC. The organic phase was decanted to a fresh tube and evaporated to dryness under a stream of air at room temperature. The extraction efficiencies for 2-MeOE2 and 2-MeOE2bisMATE from plasma were 71±5 and 75±4% (n=6), respectively. The residues were stored at −20°C until analysis by HPLC.
2-MeOE2bisMATE was separated from its putative metabolites, 2-MeOE2, 2-MeOE2-3MATE and 2-MeOE2-17MATE, using a modified version of a reversed-phase HPLC method described previously ([Hildago Aragones et al, 1996]). An Agilent 1100 (Cheshire, UK) autosampler, photodiode array detector and solvent delivery system were used. The agents were separated from endogenous plasma components by an isocratic mobile phase consisting of 58% methanol in 0.02 M ammonium sulphate. Sodium azide (1 mM) was added to the mobile phase in order to decrease microbial growth. Extracted samples were reconstituted in mobile phase and aliquots of 100 μl were injected on to a C3-phenyl column (250 × 5 mm, 5 μm) purchased from Phenomenex (Cheshire, UK). 2-Methoxyoestradiol-bis-sulphamate, 2-MeOE2 and their metabolites were analysed with a photodiode array detector with detection at 285 nm. The method was validated by spiking plasma with 2-MeOE2bisMATE (960 ng ml^−1). The inter-day and intra-day coefficients of variation were 8.2% (n=6) and 3.8% (n=6), respectively. Quantification was achieved by spiking plasma with 2-MeOE2bisMATE and the internal standard 17α-epitestosterone, extraction with diethyl ether and subsequent analysis by HPLC. […] The limits of detection (LODs) and quantification of 2-MeOE2bisMATE in plasma were 11 and 40 ng ml^−1, respectively.
Pharmacokinetic parameters were calculated using WinNonlin software (Pharsight Corporation, Mountview, CA, USA). The area under the curve (AUC) was calculated using the linear trapezoidal method, with extrapolation of the terminal phase to infinity. Other parameters calculated were: distribution and elimination rate constants (α and β); total body clearance (Cl)=dose/AUC; volume of distribution (Vd)=Cl/β; distribution half-life (t1/2α)=0.693/α; elimination half-life (t1/2β)=0.693/β; bioavailability (% F=(AUCoral/AUCi.v) × 100).

steroid sulphatase [2] = molecular target: T1, steroid sulphatase (Rattus norvegicus, UniProt P15589); assay: Liver oestrone sulphatase activity after in vivo dosing
T1 construct: Livers were obtained from animals administered with 2-MeOE2 or 2-MeOE2bisMATE either orally or intravenously, to assess their effects on steroid sulphatase activity; from tissue; host or cells: liver of female Wistar rats
T1 sequence (P15589 20-577): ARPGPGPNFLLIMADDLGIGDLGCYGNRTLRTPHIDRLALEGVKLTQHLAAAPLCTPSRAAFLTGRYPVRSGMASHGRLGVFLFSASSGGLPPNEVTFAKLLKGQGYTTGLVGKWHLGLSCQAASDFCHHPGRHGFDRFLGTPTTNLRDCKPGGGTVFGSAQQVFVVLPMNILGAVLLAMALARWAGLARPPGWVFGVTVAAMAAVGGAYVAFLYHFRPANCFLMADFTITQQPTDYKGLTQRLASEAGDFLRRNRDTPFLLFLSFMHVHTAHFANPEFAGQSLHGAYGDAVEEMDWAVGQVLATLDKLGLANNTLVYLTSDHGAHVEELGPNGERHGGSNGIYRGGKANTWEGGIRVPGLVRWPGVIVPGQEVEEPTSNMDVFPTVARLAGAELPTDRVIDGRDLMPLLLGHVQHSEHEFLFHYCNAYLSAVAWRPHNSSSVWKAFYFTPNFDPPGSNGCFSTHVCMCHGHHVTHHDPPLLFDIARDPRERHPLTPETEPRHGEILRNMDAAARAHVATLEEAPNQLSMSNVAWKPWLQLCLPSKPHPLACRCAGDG
Procedure: Livers were obtained from animals administered with 2-MeOE2 or 2-MeOE2bisMATE either orally or intravenously, to assess their effects on steroid sulphatase activity. Steroid sulphatase activity was measured as described previously ([Purohit et al, 1995]).

[3] = test system: MDA-MB-435 (ER−) human melanoma cells xenografts; assay: In vivo inhibition of tumour growth, MDA-MB-435 xenografts in nude mice; design: species or system mouse; conditions: 20 mg kg^−1 oral daily for 28 days; for effect on tumour growth / tumour volumes versus control: treatment and post-dosing periods
Procedure: (§1) To compare the anticancer effects of 2-MeOE2 and 2-MeOE2bisMATE, xenografts derived from MDA-MB-435 (ER−) human melanoma cells were transplanted into female nude mice with eight mice per group. These studies were carried out by Anti-Cancer Inc. (San Diego, CA, USA). Treatment was initiated when tumour volumes reached 100–200 mm^3. Drugs were dissolved in a minimum volume of THF, diluted with propylene glycol and administered at 20 mg kg^−1, oral, daily for 28 days. The length (l) and width (w) of tumours was measured at weekly intervals, from which the tumour volumes were calculated using the formula (l × w^2/2). Monitoring of tumour volumes continued for a further 28-day period after the end of drug administration. The body masses of control and treated animals were also measured at weekly intervals as an indicator of any toxicity that might be associated with the use of these drugs.
Student's t-test was used to assess the significance of differences in tumour volumes between control and treated animals.

[4] = test system: human umbilical vein endothelial cell (HUVEC); design: method as in Newman et al, 2004; conditions: in vitro; ref Newman et al, 2004; cited from earlier work
steroid sulphatase [5] = molecular target: T1, steroid sulphatase; design: method as in Purohit et al, 1995; conditions: single dose 10 mg kg^−1 oral or intravenous; ref Purohit et al, 1995; cited from earlier work
[6] = in vivo; cited from earlier work
[7] = Body masses of xenograft-bearing mice as an indicator of toxicity; type: in vivo, mouse; conditions: nude mice, 20 mg kg^−1 oral daily for 28 days
Procedure: as §1

[8] = female, Wistar, in vivo, iv, 10 mg/kg
[9] = female, Wistar, in vivo, po, 10 mg/kg

COc1cc2c(cc1OS(N)(=O)=O)CCC1C2CC[C@]2(C)C(OS(N)(=O)=O)CCC12 (stereo partly drawn) [2-MeOE2bisMATE, 2-methoxyoestradiol-bis-sulphamate]
plasma concentrations detected ([1]; female, Wistar, in vivo): up to 5 μM | bioavailability ([1]; female, Wistar, in vivo, 10 mg/kg, % F (bioavailability)): 85% | AUC [1, 8]: 514 ± 154 µg·h/mL | Cmax [1, 8]: 6550 ± 920 ng/mL | Vd [1, 8]: 0.28 ± 0.09 L | clearance [1, 8]: 0.833 mL/min | half-life ([1]; female, Wistar, in vivo, iv, 10 mg/kg, t1/2α (distribution half-life)): 0.22 ± 0.1 h | half-life ([1]; female, Wistar, in vivo, iv, 10 mg/kg, t1/2β (terminal half-life)): 8.5 ± 1.16 h | time for which compound was detectable in plasma ([1]; female, Wistar, in vivo, po): at least 24 h | AUC [1, 9]: 389 ± 28.8 µg·h/mL | Cl [1, 9]: 0.036 ± 0.001 L/h | Cmax [1, 9]: 3900 ± 250 ng/mL | Vd [1, 9]: 0.35 ± 0.02 L | half-life ([1]; female, Wistar, in vivo, po, 10 mg/kg, t1/2β (terminal plasma half-life)): 6.51 ± 1.09 h | plasma concentration ([1]; female, Wistar, in vivo, po, 24 h): 450 ng/mL | time for which inhibition of sulphatase activity was maintained (steroid sulphatase [2]; rat liver, after single dose): 48 h | inhibition of steroid sulphatase activity (steroid sulphatase [2]; rat liver, within 5 min of intravenous dosing): > 99% | inhibition of steroid sulphatase activity (steroid sulphatase [2]; rat liver, within 15 min of oral dosing): > 99% | inhibition at 10 mg/kg (steroid sulphatase [2]; rat, read-out: inhibition of hepatic sulphatase activity compared with control animals): 99.5 ± 0.5% | effect on tumour growth / tumour volumes versus control [3]: almost completely inhibited tumour growth; also recorded: significantly smaller | mean tumour volume as % of tumour volume in control animals ([3]; at 4 weeks, end of dosing): 14% | difference in tumour volumes versus control group ([3]; maintained for a further 4 weeks after cessation): 86% | potency relative to 2-MeOE2 in HUVEC growth inhibition [4]: 60 fold

C[C@]12CC[C@@H]3c4ccc(OS(N)(=O)=O)cc4CC[C@H]3[C@@H]1CCC2=O [EMATE, oestrone-3-O-sulphamate]
inhibition of rat liver sulphatase (steroid sulphatase [5]): at least 99% | half-life in plasma [6]: 4.5 h

COc1cc2c(cc1O)CC[C@@H]1[C@@H]2CC[C@]2(C)[C@@H](O)CC[C@@H]12 [2-MeOE2, 2-Methoxyoestradiol]
% F (bioavailability) ([1]; 10 mg kg^−1, (AUCoral/AUCi.v) × 100): very low | plasma concentration ([1]; 1 h after 10 mg kg^−1 intravenous bolus, LOD 11 ng ml^−1): below the LOD | level in plasma as putative metabolite of 2-MeOE2bisMATE ([1]; after oral or intravenous 2-MeOE2bisMATE 10 mg kg^−1): not above the LOD | concentration at 1 h ([1]; female, Wistar, plasma, iv, 10 mg kg^−1, rat, 1 h after 10 mg kg^−1 intravenous bolus, LOD 11 ng ml^−1): < 11 ng/mL | half-life ([1]; female, Wistar, plasma, iv, 10 mg kg^−1, rat, after intravenous administration, read-out: half-life in plasma): ~0.233 h | inhibition of hepatic sulphatase activity compared with control animals (steroid sulphatase [2]; rat liver, single oral or intravenous dose 10 mg kg^−1): did not affect | effect on tumour growth / tumour volumes versus control [3]: did not inhibit tumour growth; also recorded: no significant effect | body weights [7]: No decreases
